In ChEMBL document CHEMBL4823254, “Tetrahydroquinoline-Capped Histone Deacetylase 6 Inhibitor SW-101 Ameliorates Pathological Phenotypes in a Charcot-Marie-Tooth Type 2A Mouse Model” (J Med Chem, 2021):

Assays:
Histone deacetylase 1 = Histone deacetylase 1 (Homo sapiens, UniProt Q13547)
Description: Inhibition of Nanoluc-fused HDAC1 (unknown origin) expressed in HEK293 cells incubated for 2 hrs by NANOBRET assay

[1] = biological target: T1, Protein deacetylase HDAC6 (Homo sapiens, UniProt Q9UBN7)
T1 sequence (Q9UBN7 whole entry): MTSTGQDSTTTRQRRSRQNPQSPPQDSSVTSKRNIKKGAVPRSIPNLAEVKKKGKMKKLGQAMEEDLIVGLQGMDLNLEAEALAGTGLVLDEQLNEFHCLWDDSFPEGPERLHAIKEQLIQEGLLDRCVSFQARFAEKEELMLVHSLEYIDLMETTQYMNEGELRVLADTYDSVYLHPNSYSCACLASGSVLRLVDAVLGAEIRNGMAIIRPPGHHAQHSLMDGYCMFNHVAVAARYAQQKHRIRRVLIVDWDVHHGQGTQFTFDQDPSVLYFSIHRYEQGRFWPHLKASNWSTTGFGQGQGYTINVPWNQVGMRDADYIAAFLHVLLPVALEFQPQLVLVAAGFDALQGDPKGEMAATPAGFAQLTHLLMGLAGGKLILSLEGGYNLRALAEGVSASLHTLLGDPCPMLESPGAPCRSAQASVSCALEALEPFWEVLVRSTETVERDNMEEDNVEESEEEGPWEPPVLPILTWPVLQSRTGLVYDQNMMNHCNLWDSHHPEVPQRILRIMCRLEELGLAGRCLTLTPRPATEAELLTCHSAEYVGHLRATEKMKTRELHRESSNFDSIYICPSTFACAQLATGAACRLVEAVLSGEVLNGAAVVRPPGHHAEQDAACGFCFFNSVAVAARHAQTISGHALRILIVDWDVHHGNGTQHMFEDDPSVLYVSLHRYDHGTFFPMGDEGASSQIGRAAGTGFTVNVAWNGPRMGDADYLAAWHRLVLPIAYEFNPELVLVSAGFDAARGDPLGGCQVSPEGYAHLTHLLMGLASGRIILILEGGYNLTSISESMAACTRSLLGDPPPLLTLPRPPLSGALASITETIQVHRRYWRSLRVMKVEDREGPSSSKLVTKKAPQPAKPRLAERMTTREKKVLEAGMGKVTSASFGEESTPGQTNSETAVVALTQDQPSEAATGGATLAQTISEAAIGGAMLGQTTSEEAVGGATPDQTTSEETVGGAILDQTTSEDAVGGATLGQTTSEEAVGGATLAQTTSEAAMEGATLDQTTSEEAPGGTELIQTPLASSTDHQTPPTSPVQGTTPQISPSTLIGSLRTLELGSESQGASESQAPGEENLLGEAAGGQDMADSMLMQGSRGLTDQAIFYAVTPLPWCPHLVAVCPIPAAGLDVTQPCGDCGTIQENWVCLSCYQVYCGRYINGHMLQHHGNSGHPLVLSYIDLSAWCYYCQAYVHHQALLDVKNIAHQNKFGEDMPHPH
Description: Inhibition of recombinant human HDAC6 using Ac-GAK(Ac)-AMC as substrate preincubated for 10 mins followed by substrate addition and measured after 30 mins by fluorescence-based assay

[2] = Genotoxicity in Salmonella typhimurium TA1535 at 5 to 100 uM in absence of liver S9 fraction by Ames test; format: toxicity; details: salmonella enterica subsp. enterica serovar typhimurium, s9, 100 µM; dose 5-100 µM

Sequence of Histone deacetylase 1 (Q13547 whole entry): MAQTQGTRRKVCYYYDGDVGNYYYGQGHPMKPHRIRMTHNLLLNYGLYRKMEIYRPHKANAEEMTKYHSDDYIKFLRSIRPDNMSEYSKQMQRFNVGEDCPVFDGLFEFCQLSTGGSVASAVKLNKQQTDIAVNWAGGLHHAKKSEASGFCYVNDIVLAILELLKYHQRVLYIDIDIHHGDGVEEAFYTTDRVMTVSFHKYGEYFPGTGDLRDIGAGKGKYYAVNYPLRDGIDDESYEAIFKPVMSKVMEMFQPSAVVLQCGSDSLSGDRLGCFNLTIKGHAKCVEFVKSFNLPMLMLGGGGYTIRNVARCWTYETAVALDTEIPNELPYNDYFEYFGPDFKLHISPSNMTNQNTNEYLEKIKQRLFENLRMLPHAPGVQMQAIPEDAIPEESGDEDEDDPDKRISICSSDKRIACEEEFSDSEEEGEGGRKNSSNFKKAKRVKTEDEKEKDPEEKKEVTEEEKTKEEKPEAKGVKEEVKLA

Compound: NC(=O)c1ccc2c(c1)CCCN2Cc1ccc(C(=O)NO)cc1
- IC50 (Histone deacetylase 1): 4830 nM
- IC50 [1]: 0.7 nM
- Activity [2]: Non-Toxic
